Molecules are shown by their SMILES.

Drawing on article PMC5563523, “Discovery of a ROCK inhibitor, FPND, which prevents cerebral hemorrhage through maintaining vascular integrity by interference with VE-cadherin” (Cell Death Discovery, 2017), this text covers IC50 for 1 compound.

The test deals with ROCK1 (Homo sapiens, UniProt Q13464). Put plainly: Z'-LYTE kinase assay with ROCK1 enzyme, peptide substrate and […] ATP. Format: biochemical.
Chain of ROCK1 (Q13464 2-1354): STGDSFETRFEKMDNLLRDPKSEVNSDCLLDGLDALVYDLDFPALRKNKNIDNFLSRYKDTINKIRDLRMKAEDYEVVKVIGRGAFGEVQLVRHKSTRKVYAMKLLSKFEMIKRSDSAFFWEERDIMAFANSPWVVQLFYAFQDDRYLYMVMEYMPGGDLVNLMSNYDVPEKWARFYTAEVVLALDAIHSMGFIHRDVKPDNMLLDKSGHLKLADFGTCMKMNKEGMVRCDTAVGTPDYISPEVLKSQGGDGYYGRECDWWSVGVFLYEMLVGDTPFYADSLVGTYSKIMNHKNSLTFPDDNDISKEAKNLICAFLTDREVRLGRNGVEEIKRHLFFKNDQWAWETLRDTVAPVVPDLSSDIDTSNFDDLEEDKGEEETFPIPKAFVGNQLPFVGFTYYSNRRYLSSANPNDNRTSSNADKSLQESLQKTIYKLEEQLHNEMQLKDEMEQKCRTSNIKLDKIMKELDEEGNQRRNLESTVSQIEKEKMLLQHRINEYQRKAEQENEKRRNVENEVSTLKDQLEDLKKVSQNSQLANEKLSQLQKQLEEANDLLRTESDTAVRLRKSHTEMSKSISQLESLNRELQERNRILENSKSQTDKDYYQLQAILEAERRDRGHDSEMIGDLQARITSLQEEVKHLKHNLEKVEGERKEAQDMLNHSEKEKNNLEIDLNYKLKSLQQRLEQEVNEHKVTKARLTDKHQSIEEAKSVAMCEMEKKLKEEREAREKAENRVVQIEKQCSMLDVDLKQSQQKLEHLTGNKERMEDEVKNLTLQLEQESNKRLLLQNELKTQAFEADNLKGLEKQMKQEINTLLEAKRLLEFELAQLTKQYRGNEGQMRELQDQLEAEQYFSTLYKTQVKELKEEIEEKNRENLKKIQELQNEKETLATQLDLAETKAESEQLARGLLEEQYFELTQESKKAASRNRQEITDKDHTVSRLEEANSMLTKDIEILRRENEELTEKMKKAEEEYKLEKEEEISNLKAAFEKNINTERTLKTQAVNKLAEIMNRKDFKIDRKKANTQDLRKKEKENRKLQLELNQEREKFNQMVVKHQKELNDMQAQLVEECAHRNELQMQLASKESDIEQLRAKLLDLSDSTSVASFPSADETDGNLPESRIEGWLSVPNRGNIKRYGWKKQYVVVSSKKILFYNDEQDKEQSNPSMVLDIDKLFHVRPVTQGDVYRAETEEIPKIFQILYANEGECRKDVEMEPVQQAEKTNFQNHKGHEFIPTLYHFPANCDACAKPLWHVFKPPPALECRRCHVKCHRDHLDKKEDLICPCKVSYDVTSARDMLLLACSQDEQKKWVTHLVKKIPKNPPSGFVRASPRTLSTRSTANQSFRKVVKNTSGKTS

The term IC50 denotes the concentration at which inhibition is half-maximal. In the case of `Nc1nc(CN2CCN(c3ccccc3F)CC2)nc(Nc2cccc3ccccc23)n1` [FPND, 6-[4-(2-fluorophenyl)-1-piperazinyl]methyl-N-1-naphthyl-1,3,5-triazine-2,4-diamine], the half-inhibitory concentration (IC50) is 11.2 ± 2.2 µM.
